Data published in article PMC5618414, “FVIIa-sTF and Thrombin Inhibitory Activities of Compounds Isolated from Microcystis aeruginosa K-139” (Marine Drugs, 2017).
Where “and” joins values, the source holds several entries; their conditions need not be identical. Identical values can stand only once. Like-named read-outs stand apart in the source and are kept apart here.

Experiments:
thrombin [1] = target: T1, thrombin (Homo sapiens, UniProt P00734); details: literature, cited from earlier work
T1 construct: subjected to fVIIa-sTF and thrombin assays

fVIIa-sTF = fVIIa-sTF (Homo sapiens, UniProt P08709); assay: fVIIa-sTF inhibitory assay; assay type: biochemical; details: for EC50: 95% confidence using GraphPad Prism 7; for Thrombin/FVIIa-sTF EC50 Ratio: thrombin EC50 divided by fVIIa-sTF EC50
Experimental: The compounds isolated from M. aeruginosa K139 were subjected to fVIIa-sTF and thrombin assays at 10 μg/mL and 100 μg/mL. […] Our microviridin B was isolated from the strain of M. aeruginosa K139. […] We used ethanol or water as negative controls.
The fVIIa-sTF and thrombin assays have been previously described in previous papers. […] A 1 mg/mL EtOH solution was prepared and independently diluted to make 750, 500, 250, 100, 75, 50, 25, 10, 5.0, 2.5, and 1.0 μg/mL. The same experimental procedure was done in all fVIIa-sTF and thrombin assays as previously described. A 20-μL solution was added in each well, in replicate, to make a final concentration of 100, 75, 50, 250, 100, 75, 50, 25, 10, 5.0, 2.5, and 1.0 μg/mL.

chymotrypsin = tested on: chymotrypsin; set-up: method as in PMID 19260658; details: literature; cited from earlier work
thrombin [2] = target: T1, thrombin; assay: thrombin inhibitory assay; assay type: biochemical; details: for thrombin inhibition (in words): at 10 μg/mL and 100 μg/mL (low and high doses)
Experimental: The compounds isolated from M. aeruginosa K139 were subjected to fVIIa-sTF and thrombin assays at 10 μg/mL and 100 μg/mL. […] The micropeptin K139 gave a favorable fVIIa-sTF activity at 10 μg/mL and 100 μg/mL with inhibitory activity greater than 50% and 85%, respectively. […] The EC50 of each compound was computed by GraphPad Prism 7 [34], with 95% confidence. […] A difference in activity for the same compound may be attributed to the different cyanobacterial strains used in the study. Our microviridin B was isolated from the strain of M. aeruginosa K139. Okino’s group isolated the compound from the NIES-102 cyanobacterial strain. […]. […] We used ethanol or water as negative controls.
The fVIIa-sTF and thrombin assays have been previously described in previous papers. The half maximal effective concentration (EC50) compounds isolated from M. aeruginosa K139 was done in three plates, with two replicates in each of plate. A 1 mg/mL EtOH solution was prepared and independently diluted to make 750, 500, 250, 100, 75, 50, 25, 10, 5.0, 2.5, and 1.0 μg/mL. The same experimental procedure was done in all fVIIa-sTF and thrombin assays as previously described. A 20-μL solution was added in each well, in replicate, to make a final concentration of 100, 75, 50, 250, 100, 75, 50, 25, 10, 5.0, 2.5, and 1.0 μg/mL. The EC50 was calculated from GraphPad Prism 7^© [34], with 95% confidence.

[3] = 95% confidence using GraphPad Prism 7, read-out: Thrombin: EC50

fVIIa-sTF, sequence (P08709 61-212 limits assumed): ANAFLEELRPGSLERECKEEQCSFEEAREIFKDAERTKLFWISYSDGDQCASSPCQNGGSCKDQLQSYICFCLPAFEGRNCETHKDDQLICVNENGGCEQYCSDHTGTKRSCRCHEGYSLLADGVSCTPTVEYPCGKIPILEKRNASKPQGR
fVIIa-sTF, sequence (P08709 213-466 limits assumed): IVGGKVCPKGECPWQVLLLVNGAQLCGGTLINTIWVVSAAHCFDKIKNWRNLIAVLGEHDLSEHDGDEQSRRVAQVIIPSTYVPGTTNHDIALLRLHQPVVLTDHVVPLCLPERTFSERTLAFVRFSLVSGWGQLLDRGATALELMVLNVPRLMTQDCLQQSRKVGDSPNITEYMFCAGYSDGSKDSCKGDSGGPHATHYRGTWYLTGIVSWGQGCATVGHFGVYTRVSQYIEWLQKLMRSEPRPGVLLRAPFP
fVIIa-sTF, sequence (P13726 33-251 partner limits assumed): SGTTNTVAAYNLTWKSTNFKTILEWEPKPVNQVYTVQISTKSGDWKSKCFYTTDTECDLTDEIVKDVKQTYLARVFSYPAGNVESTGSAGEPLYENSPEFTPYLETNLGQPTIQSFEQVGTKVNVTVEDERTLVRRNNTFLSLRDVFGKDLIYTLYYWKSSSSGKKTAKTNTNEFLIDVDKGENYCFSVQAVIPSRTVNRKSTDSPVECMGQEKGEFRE

CCCCCCCC(=O)N[C@@H](CCC(=O)O)C(=O)N[C@@H]1C(=O)N[C@@H](CCCCN)C(=O)N[C@H]2CC[C@@H](O)N(C2=O)[C@@H](CC(C)C)C(=O)N(C)[C@@H](Cc2ccc(O)cc2)C(=O)N[C@@H](C(C)C)C(=O)O[C@@H]1C [micropeptin A]
thrombin inhibitory assay (in words) (thrombin [1]): inactive
thrombin inhibitory assay (in words) (thrombin [1]; listed as Micropeptin A): does not inhibit thrombin

CC[C@H](C)[C@@H]1NC(=O)[C@H](Cc2ccc(O)cc2)N(C)C(=O)[C@H](CC(C)C)N2C(=O)[C@H](CC[C@H]2O)NC(=O)[C@H](CC(C)C)NC(=O)[C@@H](NC(=O)[C@H](CCC(N)=O)NC(=O)[C@H](O)Cc2ccc(O)cc2)[C@@H](C)OC1=O [917S-C]
fVIIa-sTF inhibitory activity (in words) (fVIIa-sTF; at 100 μg/mL): negative inhibitory activity

CCCCCCCC(=O)N[C@@H](CCC(=O)O)C(=O)N[C@@H]1C(=O)N[C@@H](Cc2ccc(O)cc2)C(=O)N[C@H]2CC[C@@H](O)N(C2=O)[C@@H](CC(C)C)C(=O)N(C)[C@@H](Cc2ccc(O)cc2)C(=O)N[C@@H](C(C)C)C(=O)O[C@@H]1C [micropeptin F]
chymotrypsin EC50 (chymotrypsin): 1.5 µg/mL

CCCCCC(=O)N[C@@H](CCC(=O)O)C(=O)N[C@@H]1C(=O)N[C@@H](Cc2ccc(O)cc2)C(=O)N[C@H]2CC[C@@H](O)N(C2=O)[C@@H](CC(C)C)C(=O)N(C)[C@@H](Cc2ccc(O)cc2)C(=O)N[C@@H](C(C)C)C(=O)O[C@@H]1C [micropeptin E]
chymotrypsin EC50 (chymotrypsin): 1.0 µg/mL

CC[C@H](C)[C@@H]1NC(=O)[C@H](Cc2ccc(O)cc2)N(C)C(=O)[C@H](CC(C)C)N2C(=O)[C@H](CC[C@H]2O)NC(=O)[C@H](Cc2ccc(O)cc2)NC(=O)[C@@H](NC(=O)[C@H](CCC(N)=O)NC(=O)[C@H](O)Cc2ccc(O)cc2)[C@@H](C)OC1=O [917S-A]
fVIIa-sTF inhibitory activity (in words) (fVIIa-sTF; at 100 μg/mL): negative inhibitory activity

CCC(C)C1NC(=O)C(Cc2ccc(O)cc2)N(C)C(=O)C(CC(C)C)N2C(=O)C(CCC2O)NC(=O)C(CC2C=CC(O)CC2)NC(=O)C(NC(=O)C(CCC(N)=O)NC(=O)C(O)Cc2ccc(O)cc2)C(C)OC1=O (stereo not drawn) [917S-B]
fVIIa-sTF inhibitory activity (in words) (fVIIa-sTF; at 100 μg/mL): negative inhibitory activity

CCCCCC(=O)N[C@@H](CCC(=O)O)C(=O)N[C@@H]1C(=O)N[C@@H](Cc2ccc(O)cc2)C(=O)N[C@H]2CC[C@@H](O)N(C2=O)[C@@H](Cc2ccccc2)C(=O)N(C)[C@@H](Cc2ccc(O)cc2)C(=O)N[C@@H](C(C)C)C(=O)O[C@@H]1C [micropeptin C]
chymotrypsin EC50 (chymotrypsin): 1.1 µg/mL

CC(C)CC(NC(=O)C(O)Cc1ccc(O)cc1)C(=O)N1C(C(=O)NC2CCCN(C(=N)N)C2O)CC2CCC(O)CC21 [Aeruginosin K139, L-Hpla-L-Leu-L-Choi-L-Argal]
EC50 (fVIIa-sTF): 166 µM and ~166 µM
fVIIa-sTF inhibitory activity (in words) (fVIIa-sTF; at 100 μg/mL): active
Thrombin/FVIIa-sTF EC50 Ratio (fVIIa-sTF): 0.004
EC50 (thrombin [2]; [3]): 0.66 µM
thrombin inhibition (in words) (thrombin [2]): inhibited thrombin

CC(=O)N[C@@H](CC(C)C)C(=O)N[C@@H](CC(C)C)C(=O)N[C@H](C=O)CCCNC(=N)N [Leupeptin]
EC50 (fVIIa-sTF): 14 µM
Thrombin/FVIIa-sTF EC50 Ratio (fVIIa-sTF): 1.31
EC50 (thrombin [2]; [3]): 18.3 µM

CCCCCC(=O)N[C@@H](CC(=O)O)C(=O)N[C@@H]1C(=O)N[C@@H](CCCNC(=N)N)C(=O)N[C@H]2CC[C@@H](O)N(C2=O)[C@@H]([C@@H](C)CC)C(=O)N(C)[C@@H](Cc2ccc(O)cc2)C(=O)N[C@@H]([C@@H](C)CC)C(=O)O[C@@H]1C [Micropeptin K139]
EC50 (fVIIa-sTF): 10.6 µM
inhibition at 10 µg/mL (fVIIa-sTF; at 10 μg/mL): > 50%
inhibition at 100 µg/mL (fVIIa-sTF; at 100 μg/mL): > 85%
Thrombin/FVIIa-sTF EC50 Ratio (fVIIa-sTF): 2.54
Thrombin/FVIIa-sTF EC50 Ratio (fVIIa-sTF; listed as micropeptin K139): greater than one
EC50 (thrombin [2]; [3]): 26.9 µM
thrombin inhibition (in words) (thrombin [2]): inhibited thrombin

N=C(N)c1ccc(CS(=O)(=O)F)cc1 [APMSF, 4-amidinophenylmethanesulfonylfluoride]
EC50 (thrombin [2]): 2.1 µM

CCCCCCCC(=O)N[C@@H](CCC(=O)O)C(=O)N[C@@H]1C(=O)N[C@@H](Cc2ccc(O)cc2)C(=O)N[C@H]2CC[C@@H](O)N(C2=O)[C@@H](Cc2ccccc2)C(=O)N(C)[C@@H](Cc2ccc(O)cc2)C(=O)N[C@@H](C(C)C)C(=O)O[C@@H]1C [micropeptin D]
chymotrypsin EC50 (chymotrypsin): 1.2 µg/mL
